Reference: US20240270821A1, “GIP/GLP1/GCG TRI-RECEPTOR AGONISTS AND USES THEREOF” (priority 2023, published 2024)
Like-named read-outs stand apart in the source and are kept apart here. Starred links: 1 amine or outer side, 2 acyl side, 3 side chain; linkers in the order of their positions; H or OH if unused. Non-standard residues stand in square brackets, D forms with d. Groups on a side chain read outwards from the residue. *: point of attachment. C18 diacid = O=C(O)CCCCCCCCCCCCCCCCC(=O)*; αMePhe(2-F) = C[C@](N)(Cc1ccccc1F)C(=O)O; γGlu = O=C(O)[C@H](CCC(=O)[*:2])N[*:1]; αMe4Pal = C[C@](N)(Cc1ccncc1)C(=O)O; αMeY = C[C@](N)(Cc1ccc(O)cc1)C(=O)O; 4Pal = N[C@@H](Cc1ccncc1)C(=O)O; αMeL = CC(C)C[C@](C)(N)C(=O)O; αMeS = C[C@](N)(CO)C(=O)O; Orn = NCCC[C@H](N)C(=O)O; Aib = CC(C)(N)C(=O)O

Key:
Type in all cases: cell-based
hGIPR [1] = target: T1, hGIPR (Homo sapiens, UniProt P48546); test: Functional cAMP activation in the presence of 0.1% casein (no HSA); details: read-out: Relative cAMP EC50, hGIPR;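 also: intracellular cAMP rise after 30 min at 37 °C read by HTRF against a standard curve, scaled between buffer alone (0%) and top control ligand concentration (100%), four-parameter fit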
T1 sequence (P48546 22-466): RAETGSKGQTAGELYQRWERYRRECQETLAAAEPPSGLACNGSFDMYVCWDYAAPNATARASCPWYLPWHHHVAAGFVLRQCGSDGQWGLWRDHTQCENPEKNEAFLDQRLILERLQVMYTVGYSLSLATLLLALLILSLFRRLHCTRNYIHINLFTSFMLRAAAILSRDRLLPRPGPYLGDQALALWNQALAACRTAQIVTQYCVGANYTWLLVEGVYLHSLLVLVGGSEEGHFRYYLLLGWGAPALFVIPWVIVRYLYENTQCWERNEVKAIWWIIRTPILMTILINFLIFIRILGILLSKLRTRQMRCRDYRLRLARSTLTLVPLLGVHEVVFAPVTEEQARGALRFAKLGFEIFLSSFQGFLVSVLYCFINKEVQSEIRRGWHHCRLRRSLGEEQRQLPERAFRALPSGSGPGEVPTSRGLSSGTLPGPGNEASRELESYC

human GcgR = human GcgR (Homo sapiens, UniProt P47871); test: Functional cAMP activity in the presence of 1% HSA; details: read-out: cAMP Rel EC50, hGcgR
Sequence of human GcgR (P47871 26-477): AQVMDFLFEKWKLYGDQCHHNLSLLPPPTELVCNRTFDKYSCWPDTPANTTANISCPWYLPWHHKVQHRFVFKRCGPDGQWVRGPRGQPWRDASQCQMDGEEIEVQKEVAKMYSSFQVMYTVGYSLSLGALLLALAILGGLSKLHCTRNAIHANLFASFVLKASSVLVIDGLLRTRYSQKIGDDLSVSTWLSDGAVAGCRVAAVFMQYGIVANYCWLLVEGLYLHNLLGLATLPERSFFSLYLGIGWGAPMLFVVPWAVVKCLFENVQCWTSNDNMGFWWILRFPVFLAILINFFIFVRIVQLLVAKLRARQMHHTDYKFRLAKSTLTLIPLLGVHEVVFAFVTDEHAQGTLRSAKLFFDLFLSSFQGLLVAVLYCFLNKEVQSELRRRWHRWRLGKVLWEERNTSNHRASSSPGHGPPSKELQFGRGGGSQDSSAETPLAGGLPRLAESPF

hGIPR [2] = target: T1, hGIPR; test: Functional cAMP activity in the presence of 1% HSA; details: read-out: cAMP Rel EC50, hGIPR
hGLP-1R [3] = target: T2, hGLP-1R (Homo sapiens, UniProt P43220); test: Functional cAMP activity in the presence of 1% HSA; details: read-out: cAMP Rel EC50, hGLP-1R
T2 sequence (P43220 24-463): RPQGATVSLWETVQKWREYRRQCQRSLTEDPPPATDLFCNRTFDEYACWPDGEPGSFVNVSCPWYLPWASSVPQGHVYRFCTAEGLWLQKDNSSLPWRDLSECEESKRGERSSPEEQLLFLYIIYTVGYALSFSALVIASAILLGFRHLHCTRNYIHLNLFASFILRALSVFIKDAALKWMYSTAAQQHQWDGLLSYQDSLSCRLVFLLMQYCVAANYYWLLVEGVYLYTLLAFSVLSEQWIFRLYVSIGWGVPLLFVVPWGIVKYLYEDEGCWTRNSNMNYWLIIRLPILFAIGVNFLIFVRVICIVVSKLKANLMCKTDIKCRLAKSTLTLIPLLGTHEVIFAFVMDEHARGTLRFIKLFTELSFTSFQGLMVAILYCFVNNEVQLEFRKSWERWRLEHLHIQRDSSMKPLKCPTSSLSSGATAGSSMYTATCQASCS

hGcgR = hGcgR (Homo sapiens, UniProt P47871); test: Functional cAMP activation in the presence of 0.1% casein (no HSA); details: read-out: Relative cAMP EC50, hGcgR;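 also: intracellular cAMP rise after 30 min at 37 °C, read by HTRF against a cAMP standard curve, scaled from buffer only (0%) to maximal control ligand response (100%)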
Sequence of hGcgR (P47871 26-477): as the sequence (P47871 26-477) above

hGLP-1R [4] = target: T2, hGLP-1R; test: as above; details: read-out: Relative cAMP EC50, hGLP-1R
[5] = 0.1% casein, no HSA, geometric mean
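For Relative cAMP EC50, hGLP-1R in this document: intracellular cAMP rise after 30 min at 37 °C read by HTRF, normalized between buffer only (0%) and maximal control ligand (100%), four-parameter variable-slope fit.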

Row | Substance | EC50 (hGIPR [1]) [nM] | EC50 (human GcgR) [nM] | EC50 (hGIPR [2]) [nM] | EC50 (hGLP-1R [3]) [nM] | EC50 (hGcgR) [nM] | EC50 (hGLP-1R [4]) [nM] | EC50 (hGIPR [1]; [5]) [nM] | EC50 (hGcgR; [5]) [nM] | EC50 (hGLP-1R [4]; [5]) [nM]
1 | H-Y[Aib]QGT[αMePhe(2-F)]TSD[4Pal][αMeS]I[αMeL]LD[Orn]K([γGlu-γGlu-C18 diacid])AQ[Aib][Orn]FI[dE][αMeY]LQEGGPSSGEPPPEGSEE-NH2 [Example 585] | 0.0801 | 436 | 3.93 | 38.6 | 6.25 | 0.601 | – | – | –
2 | H-Y[Aib]QGT[αMePhe(2-F)]TSD[4Pal][αMeS]I[αMeL]LD[Orn]K([γGlu-γGlu-C18 diacid])AQ[Aib][Orn]FI[dE][αMeY]LQEGGPSSGEPPPSGTEE-NH2 [Example 572] | 0.0465 | 330 | 3.13 | 30.4 | 3.48 | 0.366 | – | – | –
3 | H-Y[Aib]QGT[αMePhe(2-F)]TSD[4Pal][αMeS]I[αMeL]LD[Orn]K([γGlu-γGlu-C18 diacid])AQ[Aib][Orn]FI[dE][αMeY]LQEGGPSSGEPPPSGTEEE-NH2 [Example 573] | 0.0342 | 388 | 3.15 | 31.6 | 4.02 | 0.416 | – | – | –
4 | H-Y[Aib]QGT[αMePhe(2-F)]TSD[4Pal][αMeS]I[αMeL]LD[Orn]K([γGlu-γGlu-C18 diacid])AQ[Aib][Orn]FI[dE][αMeY]LSEGGPSSGEPPPSGAEE-NH2 [Example 567] | 0.165 | 521 | 13.4 | 102 | 5.89 | 1.07 | – | – | –
5 | H-Y[Aib]QGT[αMePhe(2-F)]TSD[4Pal][αMeS]I[αMeL]LD[Orn]K([γGlu-γGlu-C18 diacid])AQ[Aib][Orn]FI[dE][αMeY]LSEGGPSSGEPPPSGGE-NH2 [Example 559] | 0.119 | 323 | 9.15 | 49.7 | 4.07 | 0.542 | – | – | –
6 | H-Y[Aib]QGT[αMePhe(2-F)]TSD[4Pal][αMeS]I[αMeL]LD[Orn]K([γGlu-γGlu-C18 diacid])AQ[Aib][Orn]FI[dE][αMeY]LSEGGPSSGEPPPSGGEE-NH2 [Example 568] | 0.125 | 477 | 13.2 | 116 | 6.13 | 0.986 | – | – | –
7 | H-Y[Aib]QGT[αMePhe(2-F)]TSD[4Pal][αMeS]I[αMeL]LD[Orn]K([γGlu-γGlu-C18 diacid])AQ[Aib][Orn]FI[dE][αMeY]LSEGGPSSGEPPPSGQEE-NH2 [Example 570] | 0.186 | 648 | 13.6 | 95.1 | 5.88 | 1.03 | – | – | –
8 | H-Y[Aib]QGT[αMePhe(2-F)]TSD[4Pal][αMeS]I[αMeL]LD[Orn]K([γGlu-γGlu-C18 diacid])AQ[Aib][Orn]FI[dE][αMeY]LSEGGPSSGEPPPSGSE-NH2 [Example 560] | 0.113 | 355 | 7.94 | 52 | 3.8 | 0.883 | – | – | –
9 | H-Y[Aib]QGT[αMePhe(2-F)]TSD[4Pal][αMeS]I[αMeL]LD[Orn]K([γGlu-γGlu-C18 diacid])AQ[Aib][Orn]FI[dE][αMeY]LSEGGPSSGEPPPSGTE-NH2 [Example 517] | 0.158 | 337 | 9.12 | 50 | 4.69 | 0.646 | – | – | –
10 | H-Y[Aib]QGT[αMePhe(2-F)]TSD[4Pal][αMeS]I[αMeL]LD[Orn]K([γGlu-γGlu-C18 diacid])AQ[Aib][Orn]FI[dE][αMeY]LSEGGPSSGEPPPSGTEE-NH2 [Example 561] | 0.212 | 544 | 10.1 | 76.1 | 5.43 | 1.13 | – | – | –
11 | H-Y[Aib]QGT[αMePhe(2-F)]TSD[4Pal][αMeS]I[αMeL]LD[Orn]K([γGlu-γGlu-C18 diacid])AQ[Aib][Orn]FI[dE][αMeY]LSEGGPSSGEPPPSGTEEE-NH2 [Example 562] | 0.284 | 427 | 10.2 | 89.5 | 6 | 1.67 | – | – | –
12 | H-Y[Aib]QGT[αMePhe(2-F)]TSD[4Pal][αMeS]I[αMeL]LD[Orn]K([γGlu-γGlu-C18 diacid])AQ[Aib][Orn]FI[dE][αMeY]LTEGGPSSGEPPPEGTEEE-NH2 [Example 598] | 0.0927 | 457 | 3.49 | 47.3 | 8.79 | 0.886 | – | – | –

These reach a lower EC50 (human GcgR). Values come first.

Row | EC50 (hGIPR [1]) [nM] | EC50 (human GcgR) [nM] | EC50 (hGIPR [2]) [nM] | EC50 (hGLP-1R [3]) [nM] | EC50 (hGcgR) [nM] | EC50 (hGLP-1R [4]) [nM] | EC50 (hGIPR [1]; [5]) [nM] | EC50 (hGcgR; [5]) [nM] | EC50 (hGLP-1R [4]; [5]) [nM] | Substance
13 | 0.105 | 309 | 4.25 | 58.7 | 4.34 | 0.89 | – | – | – | H-Y[Aib]QGT[αMePhe(2-F)]TSD[4Pal][αMeS]I[αMeL]LD[Orn]K([γGlu-γGlu-C18 diacid])AQ[Aib][Orn]FI[dE][αMeY]LAEGGPSSGEPPPSGGEE-NH2 [Example 590]
14 | 0.0319 | 300 | 1.88 | 32 | 4.56 | 0.41 | – | – | – | H-Y[Aib]QGT[αMePhe(2-F)]TSD[4Pal][αMeS]I[αMeL]LD[Orn]K([γGlu-γGlu-C18 diacid])AQ[Aib][Orn]FI[dE][αMeY]LTEGGPSSGEPPPSGTGE-NH2 [Example 543]
15 | 0.0672 | 289 | 3.83 | 44.4 | 4.11 | 0.713 | – | – | – | H-Y[Aib]QGT[αMePhe(2-F)]TSD[4Pal][αMeS]I[αMeL]LD[Orn]K([γGlu-γGlu-C18 diacid])AQ[Aib][Orn]FI[dE][αMeY]LAEGGPSSGEPPPSGSEE-NH2 [Example 589]
16 | 0.129 | 265 | 7.1 | 51 | 3.93 | 0.867 | – | – | – | H-Y[Aib]QGT[αMePhe(2-F)]TSD[4Pal][αMeS]I[αMeL]LD[Orn]K([γGlu-γGlu-C18 diacid])AQ[Aib][Orn]FI[dE][αMeY]LSEGGPSSGEPPPSGTGE-NH2 [Example 518]
17 | 0.0777 | 259 | 2.86 | 34.1 | 4.72 | 0.613 | – | – | – | H-Y[Aib]QGT[αMePhe(2-F)]TSD[4Pal][αMeS]I[αMeL]LD[Orn]K([γGlu-γGlu-C18 diacid])AQ[Aib][Orn]FI[dE][αMeY]LQEGGPSSGEPPPEGEEE-NH2 [Example 588]
18 | 0.0336 | 256 | 1.69 | 29.6 | 5.03 | 0.388 | – | – | – | H-Y[Aib]QGT[αMePhe(2-F)]TSD[4Pal][αMeS]I[αMeL]LD[Orn]K([γGlu-γGlu-C18 diacid])AQ[Aib][Orn]FI[dE][αMeY]LTEGGPSSGEPPPSGTE-NH2 [Example 542]
19 | – | 199 | 0.527 | 39.5 | – | – | 0.00621 | 1.99 | 0.387 | H-Y[Aib]QGT[αMePhe(2-F)]TSD[4Pal][αMeS]I[αMeL]LD[Orn]K([γGlu-γGlu-C18 diacid])AQ[αMe4Pal]EFI[dE][αMeY]LIEGGPPS[Aib][Orn]PPP[Orn]GE-NH2 [Example 1227]
20 | – | 185 | 0.522 | 39.1 | – | – | 0.0067 | 1.98 | 0.379 | H-Y[Aib]QGT[αMePhe(2-F)]TSD[4Pal][αMeS]I[αMeL]LD[Orn]K([γGlu-γGlu-C18 diacid])AQ[αMe4Pal]EFI[dE][αMeY]LIEGGPPS[Aib][Orn]PPP[Orn]SE-NH2 [Example 1228]
21 | – | 184 | 0.443 | 34.4 | – | – | 0.00539 | 1.65 | 0.264 | H-Y[Aib]QGT[αMePhe(2-F)]TSD[4Pal][αMeS]I[αMeL]LD[Orn]K([γGlu-γGlu-C18 diacid])AQ[αMe4Pal]EFI[dE][αMeY]LIEGGPPS[Aib][Orn]PPP[Orn]GS-NH2 [Example 1226]
22 | 0.0432 | 180 | 2.74 | 40.2 | 2.71 | 0.602 | – | – | – | H-Y[Aib]QGT[αMePhe(2-F)]TSD[4Pal][αMeS]I[αMeL]LD[Orn]K([γGlu-γGlu-C18 diacid])AQ[Aib][Orn]FI[dE][αMeY]LAEGGPSSGEPPPSGTGE-NH2 [Example 545]
23 | 0.041 | 171 | 2.4 | 43 | 2.71 | 0.623 | – | – | – | H-Y[Aib]QGT[αMePhe(2-F)]TSD[4Pal][αMeS]I[αMeL]LD[Orn]K([γGlu-γGlu-C18 diacid])AQ[Aib][Orn]FI[dE][αMeY]LAEGGPSSGEPPPSGTE-NH2 [Example 544]
24 | 0.0107 | 65.5 | 0.722 | 8.39 | 1.47 | 0.215 | – | – | – | H-Y[Aib]QGT[αMePhe(2-F)]TSD[4Pal][αMeS]I[αMeL]LD[Orn]K([γGlu-γGlu-C18 diacid])AQ[Aib][Orn]FI[dE][αMeY]LIEGGPSSGEPPPSEG-NH2 [Example 480]
